Source: publication PMC2898662, “Midkine inhibitors: application of a simple assay procedure to screening of inhibitory compounds” (International Archives of Medicine, 2010)
Ends that are not written are not given here. Peptide text beside a SMILES is read from it.

Key:
[1] = test system: UMR106 cells; assay: Toxicity to UMR106 target cells in culture
From the text: These 10 compounds were surveyed for the activity to inhibit midkine activity.

[2] = target: T1, midkine (Homo sapiens, UniProt P21741); assay: Midkine activity: midkine-dependent migration of UMR106 cells (Chemotaxicell); type: cell-based; conditions: filter coated with 20 μg/ml midkine, 4 h, OD 590 nm
T1 construct: made in house; host or cells: yeast
T1 sequence (P21741 23-143 limits assumed): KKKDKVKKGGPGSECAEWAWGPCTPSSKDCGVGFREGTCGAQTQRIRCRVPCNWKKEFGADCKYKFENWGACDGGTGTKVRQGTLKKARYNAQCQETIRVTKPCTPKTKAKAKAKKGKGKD
Procedure: Midkine activity was determined by promotion of migration of UMR106 (ATTC No. 1661) cells. Chemotaxicell (pore size 8 micron, Kurabo Industries Ltd., Japan) was coated with 20 μg/ml of midkine at the lower surface of the filter for 1 h, and washed with Dulbecco's phosphate-buffered saline (PBS) twice. UMR106 cells (2 × 10^5 cells in 0.2 ml of Dulbecco's modified Eagle's medium with 0.3% bovine serum albumin) were added to the upper chamber. The lower chamber contained 0.5 ml of the same medium. Cells were cultured for 4 h. The inner Chemotaxicell was cleaned with PBS, and cells were fixed with 100% methanol at room temperature for 20 min. The inner cell was cleaned with cotton bar, and the migrated cells were stained with 1% crystal violet at room temperature for 30 min., and were washed with H2O. The cells were extracted with 0.2 ml of 1% SDS with 1% Triton X-100 for 1 h upon agitation. Then extract of 0.15 ml was transferred to a 96 well plate and OD 590 nm was determined. Upon inhibition assay using low molecular weight compounds, they were dissolved in ethanol and were added to the lower chamber so that the final ethanol concentration was 2%. The control contained also 2% ethanol in this occasion. Inhibition assay using peptides was performed by adding them dissolved in H2O. Assay was done in duplicate.

[3] = target: T1, midkine; assay: Binding activity to midkine by surface plasmon assay (BIACORE 3000); conditions: BIACORE 3000, midkine immobilised on CM5 chip; peptides 5 μg/ml in 10 mM HEPES-NaOH pH 7.4, 0.15 M NaCl, 0.0005% Tween 20; 25°C; read-out: Binding constant to midkine
Procedure: Binding activity to midkine was evaluated in the BIACORE 3000 System (GE Healthcare, UK Ltd). A CM5 sensor chip coated with carboxymethyldextran was activated by injecting a solution (1:1) of 200 mM N-ethyl-N'-(3-dimethylaminopropyl) carbodiimide hydrochloride and 100 mM N-hydroxysuccinimide at a flow rate of 10 μl/min. A 70 μl aliquot of midkine solution (50 μg/ml in 10 mM acetate buffer, pH 5.0) was injected for immobilization. The remaining activated N-hydroxysuccinimide ester groups were blocked by injecting 1 M ethanolamine hydrochloride/NaOH, pH 8.5, and washed with 10 μl of 1 M NaCl. Peptides (5 μg/ml) in the running buffer (10 mM HEPES-NaOH, pH 7.4, containing 0.15 M NaCl and 0.0005% Tween 20) were injected into the flow cell, and the change in resonance units was recorded. Binding assays were performed at 25°C with a constant flow rate of […] in both association and dissociation phases.

[4] = peptide added to culture of UMR106 cells at 1 mg/ml
[5] = peptide 1 mg/ml in lower chamber, dissolved in H2O, control without material = 100, duplicate

Kd [3] [nM]	Migration activity (%) [2, 5] [%]	Compound	other results
950	99.5 ± 6.9	AMETNLV [AM7]	
	156 ± 6	GTGTKVRQGTL [GT11, midkine-derived peptide … from β-sheet of C-terminal half]	
300	113 ± 10.1	IENPRGSKDIKKNKN [IE15]	
200	107 ± 15	KQNQVKFGS [KQ9]	
230	107 ± 2	MQSTIRE [MQ7]	

Further lines, the compound ahead of its results:

Compound	Kd [3] [nM]	Migration activity (%) [2, 5] [%]	other results
CC1CCCC(C)N1c1nc(-c2cccs2)cc(C(F)(F)F)n1 (stereo not shown) [Compound I, 2-(2,6-dimethylpiperidin-1-yl)-4-thiophen-2-yl-6-(trifluoromethy)pyrimidine]			Toxicity to the target cells ([1]; at the concentration used for the migration assay (Compound I 0.146 mg/ml, Compound II 0.10 mg/ml)): no toxicity; Migration activity (%) ([2]; compound 0.146 mg/ml in lower chamber, 2% ethanol, control = 100, duplicate): 43.8 ± 10.2%
CC[C@H](C)[C@H](NC(=O)[C@H](CS)NC(=O)[C@H](CCC(=O)O)NC(=O)CNC(=O)[C@H](CS)NC(=O)[C@H](CO)NC(=O)[C@H](CCCCN)NC(=O)[C@H](C)NC(=O)[C@H](CC(N)=O)NC(=O)[C@H](C)NC(=O)[C@@H](N)CCCCN)C(=O)O [KA11] (H-KANAKSCGECI-OH)	270	43.7 ± 12.8	Toxicity to UMR106 cells [1, 4]: no toxicity was observed
PAKLRNPCT [PA9]	450	69.4 ± 46.1	
QETIRVTKPC [QE10, midkine-derived peptide … from β-sheet of C-terminal half]		99.5 ± 10.6	
TFSQRIEG [TF8]	140	105 ± 24	
YKFENWGACDGG [YK12, midkine-derived peptide … from β-sheet of C-terminal half]		44.0 ± 10.5	Inhibition of cell-substratum adhesion of UMR106 cells [1, 4]: inhibition of cell-substratum adhesion was observed in a certain occasion; Toxicity to UMR106 cells [1, 4]: no toxicity was observed
